Data published in PubChem BioAssay AID256 (DTP/NCI, 2004).
Values joined by “and” are separate entries in the source; they are usually repeats but may differ in a detail not shown here. Equal values may be shown once. Toxic doses and inconclusive results are not listed.

Test system: CD2F1 mice, L1210 leukemia ip, survival T/C
Assay: NCI In Vivo Anticancer Drug Screen. Data for tumor model L1210 Leukemia (intraperitoneal) in CD2F1 (CDF1) mice
Details: endpoint: mean survival time, higher = longer survival
Outline: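 Vehicle-treated tumor-bearing mice served as controls (C) for compound-treated mice (T). Reported figure is T divided by C.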

[1] = dose: 100.0 mg/kg/injection, schedule: Q04DX002 (ip), vehicle: saline
[2] = dose: 200.0 mg/kg/injection, schedule: Q04DX002 (ip), vehicle: saline
[3] = dose: 100.0 mg/kg/injection, schedule: Q01DX009 (ip), vehicle: saline with Tween-80
[4] = dose: 200.0 mg/kg/injection, schedule: Q01DX009 (ip), vehicle: saline with Tween-80
[5] = dose: 100.0 mg/kg/injection, schedule: Q04DX003 (ip), vehicle: saline with Tween-80
[6] = dose: 200.0 mg/kg/injection, schedule: Q04DX003 (ip), vehicle: saline with Tween-80
[7] = dose: 50.0 mg/kg/injection, schedule: Q01DX009 (ip), vehicle: saline with Tween-80
[8] = dose: 400.0 mg/kg/injection, schedule: Q04DX003 (ip), vehicle: saline with Tween-80
[9] = dose: 75.0 mg/kg/injection, schedule: Q01DX001 (ip), vehicle: saline
[10] = dose: 150.0 mg/kg/injection, schedule: Q01DX001 (ip), vehicle: saline
[11] = dose: 400.0 mg/kg/injection, schedule: Q01DX009 (ip), vehicle: saline with Tween-80
[12] = dose: 12.5 mg/kg/injection, schedule: Q01DX009 (ip), vehicle: saline with Tween-80
[13] = dose: 6.25 mg/kg/injection, schedule: Q01DX009 (ip), vehicle: saline with Tween-80
[14] = dose: 100.0 mg/kg/injection, schedule: Q04DX002 (ip), vehicle: saline with Tween-80
[15] = dose: 200.0 mg/kg/injection, schedule: Q04DX002 (ip), vehicle: saline with Tween-80
[16] = dose: 400.0 mg/kg/injection, schedule: Q04DX002 (ip), vehicle: saline with Tween-80
[17] = dose: 50.0 mg/kg/injection, schedule: Q04DX002 (ip), vehicle: saline with Tween-80

N/C(=N/OCc1ccccc1)c1ncn(C2CCCC2)c1NC=O
T/C (dose: 100.0 mg/kg/injection, schedule: Q01DX001 (ip), vehicle: other): 112 % of control | T/C (dose: 200.0 mg/kg/injection, schedule: Q01DX001 (ip), vehicle: other): 104 % of control | T/C (dose: 400.0 mg/kg/injection, schedule: Q01DX001 (ip), vehicle: other): 102 % of control

CCCC(C)CC1CCC(N)CC1 (stereo unspecified)
T/C [1]: 96 % of control | T/C [2]: 96 % of control

ClCC(Cl)CN(Cc1ccccc1)Cc1ccccc1 (stereo unspecified)
T/C (dose: 100.0 mg/kg/injection, schedule: Q01DX001 (ip), vehicle: saline with Tween-80): 102 % of control | T/C [3]: 102 % of control | T/C (dose: 200.0 mg/kg/injection, schedule: Q01DX001 (ip), vehicle: saline with Tween-80): 93 % of control | T/C [4]: 104 % of control | T/C (dose: 400.0 mg/kg/injection, schedule: Q01DX001 (ip), vehicle: saline with Tween-80): 98 % of control

O=c1o[nH]c(-c2ccccc2)c1-c1ccccc1
T/C (dose: 50.0 mg/kg/injection, schedule: Q04DX003 (ip), vehicle: saline with Tween-80): 95 % of control | T/C [5]: 98 % of control | T/C [6]: 106 % of control

Cc1cc(Cl)ccc1NC(=O)OCCOc1ccc([N+](=O)[O-])cc1
T/C [7]: 96 % of control | T/C [3]: 96 % of control | T/C [4]: 100 % of control

O=c1[nH]c2ccc(Cl)cc2c2ccccc12
T/C (dose: 100.0 mg/kg/injection, schedule: Q01DX001 (ip), vehicle: carboxymethylcellulose (CMC)): 91 % of control | T/C (dose: 200.0 mg/kg/injection, schedule: Q01DX001 (ip), vehicle: carboxymethylcellulose (CMC)): 97 % of control | T/C (dose: 400.0 mg/kg/injection, schedule: Q01DX001 (ip), vehicle: carboxymethylcellulose (CMC)): 105 % of control

O=S(=O)(Nc1ccccn1)c1ccc(Cl)cc1
T/C [5]: 91 % of control | T/C [6]: 95 % of control | T/C [8]: 90 % of control

NC(N)=N/N=C/C/C=N/N=C(N)N
T/C (dose: 30.0 mg/kg/injection, schedule: Q01DX009 (ip), vehicle: saline): 91 % of control | T/C (dose: 60.0 mg/kg/injection, schedule: Q01DX009 (ip), vehicle: saline): 90 % of control | T/C (dose: 120.0 mg/kg/injection, schedule: Q01DX009 (ip), vehicle: saline): 93 % of control | T/C (dose: 240.0 mg/kg/injection, schedule: Q01DX009 (ip), vehicle: saline): 90 % of control | T/C (dose: 480.0 mg/kg/injection, schedule: Q01DX009 (ip), vehicle: saline): 90 % of control

C1CO[P+]2(O1)OCCO2
T/C [1]: 95 % of control | T/C [2]: 107 % of control | T/C (dose: 400.0 mg/kg/injection, schedule: Q04DX002 (ip), vehicle: saline): 95 % of control

CNc1nc(N)nc2nonc12
T/C (dose: 12.5 mg/kg/injection, schedule: Q01DX005 (ip), vehicle: other): 98 % of control | T/C (dose: 25.0 mg/kg/injection, schedule: Q01DX005 (ip), vehicle: other): 98 % of control | T/C (dose: 50.0 mg/kg/injection, schedule: Q01DX005 (ip), vehicle: other): 95 % of control | T/C (dose: 100.0 mg/kg/injection, schedule: Q01DX005 (ip), vehicle: other): 86 % of control | T/C (dose: 200.0 mg/kg/injection, schedule: Q01DX005 (ip), vehicle: other): 89 % of control

CCCCn1c2ccccc2c2ccccc21
T/C [5]: 94 % of control | T/C [8]: 94 % of control

COc1ccc(-c2c(C(=O)NCCc3ccccc3)[nH]c(-c3ccccc3)c2-c2ccccc2)cc1
T/C [9]: 95 % of control | T/C [10]: 98 % of control

Oc1cc2c3c(c1)c1cc4c(cc1c[n+]3CC2)OCO4
T/C (dose: 3.13 mg/kg/injection, schedule: Q01DX009 (ip), vehicle: other): 115 % of control | T/C (dose: 3.13 mg/kg/injection, schedule: Q01DX009 (ip), vehicle: water): 124 % of control | T/C (dose: 12.5 mg/kg/injection, schedule: Q01DX009 (ip), vehicle: water): 122 % of control | T/C (dose: 25.0 mg/kg/injection, schedule: Q01DX009 (ip), vehicle: other): 115 % of control

Nc1ccccc1-c1ccccc1N
T/C [1]: 87 % of control

CN=C1N[N+]2=CCCCC2S1 (stereo unspecified)
T/C (dose: 25.0 mg/kg/injection, schedule: Q04DX003 (ip), vehicle: saline): 94 % of control | T/C (dose: 50.0 mg/kg/injection, schedule: Q04DX003 (ip), vehicle: saline): 94 % of control

COC(=O)C1(C(=O)OC)C2C(=O)C3C(C21)C3(C(=O)OC(C)(C)C)C(=O)OC(C)(C)C (stereo unspecified)
T/C [3]: 96 % of control | T/C [4]: 94 % of control | T/C [11]: 93 % of control

CCCCCCCCCCCCCCCCCCc1ccc(O)cc1O
T/C [3]: 96 % of control | T/C [4]: 101 % of control | T/C [11]: 104 % of control

O=C1/C(=C/C2CCC3CCCCC3[N-]2)N2CCC1CC2.[Cl][Co][Cl] (stereo unspecified)
T/C (dose: 9.4 mg/kg/injection, schedule: Q04DX003 (ip), vehicle: saline): 102 % of control | T/C (dose: 18.8 mg/kg/injection, schedule: Q04DX003 (ip), vehicle: saline): 100 % of control | T/C (dose: 37.5 mg/kg/injection, schedule: Q04DX003 (ip), vehicle: saline): 109 % of control

CCCCCCOC(CN(C)C)C(Cl)(Cl)Cl (stereo unspecified)
T/C [12]: 96 % of control and 103 % of control | T/C (dose: 25.0 mg/kg/injection, schedule: Q01DX009 (ip), vehicle: saline with Tween-80): 96 % of control and 100 % of control | T/C [7]: 97 % of control and 100 % of control | T/C [3]: 96 % of control and 101 % of control | T/C [4]: 102 % of control and 105 % of control | T/C [11]: 105 % of control

CCCN(CCC)C(=O)C(=O)OCC
T/C (dose: 6.25 mg/kg/injection, schedule: Q01DX009 (ip), vehicle: saline): 90 % of control | T/C (dose: 12.5 mg/kg/injection, schedule: Q01DX009 (ip), vehicle: saline): 96 % of control | T/C (dose: 25.0 mg/kg/injection, schedule: Q01DX009 (ip), vehicle: saline): 93 % of control

CC(=O)C12CC3CC1C2C3
T/C [9]: 101 % of control | T/C [10]: 98 % of control | T/C (dose: 300.0 mg/kg/injection, schedule: Q01DX001 (ip), vehicle: saline): 93 % of control

CN(C)CC[CH2][Sn]([CH3])([CH3])[CH3]
T/C (dose: 3.12 mg/kg/injection, schedule: Q01DX009 (ip), vehicle: saline with Tween-80): 104 % of control | T/C [13]: 100 % of control | T/C [12]: 90 % of control

N#C/C(=C\C1CC(Br)CCC1O)C1CCC([N+](=O)[O-])CC1 (stereo unspecified)
T/C [7]: 86 % of control | T/C [3]: 88 % of control

CN(C)CCNc1ccc(NCCN(C)C)c2c1C(=O)c1ccccc1C2=O
T/C (dose: 3.75 mg/kg/injection, schedule: Q01DX009 (ip), vehicle: saline with Tween-80): 104 % of control | T/C (dose: 7.5 mg/kg/injection, schedule: Q01DX009 (ip), vehicle: saline with Tween-80): 107 % of control | T/C (dose: 15.0 mg/kg/injection, schedule: Q01DX009 (ip), vehicle: saline with Tween-80): 117 % of control | T/C (dose: 30.0 mg/kg/injection, schedule: Q01DX009 (ip), vehicle: saline with Tween-80): 150 % of control | T/C (dose: 60.0 mg/kg/injection, schedule: Q01DX009 (ip), vehicle: saline with Tween-80): 100 % of control

CC(C)CC(C)(C)COP(=S)(OCC(C)(C)CC(C)C)OCC(C)(C)CC(C)C
T/C [14]: 91 % of control | T/C [15]: 91 % of control | T/C [16]: 102 % of control

COc1ccc(NC(=O)Nc2ccccc2OC)c(Cl)c1
T/C [14]: 94 % of control | T/C [15]: 87 % of control | T/C [16]: 97 % of control

C[Si](C)c1cccc(Cl)c1
T/C [3]: 104 % of control | T/C [4]: 100 % of control

CCC1CCCCC1(O)CC (stereo unspecified)
T/C [5]: 106 % of control | T/C [6]: 103 % of control | T/C [8]: 103 % of control

O=[N+]([O-])c1cc(-c2nnc(-c3ccc(Cl)c([N+](=O)[O-])c3)o2)ccc1Cl
T/C [17]: 100 % of control | T/C [14]: 100 % of control | T/C [15]: 96 % of control | T/C [16]: 100 % of control

ClC(Cl)=[C](Cl)[Hg][C](Cl)=C(Cl)Cl
T/C [13]: 93 % of control

CC(=O)C(C(=N)C#N)C(C)=O
T/C [17]: 101 % of control | T/C [14]: 89 % of control | T/C [15]: 89 % of control
